For this experiment, the target named is T1, bCA-II (Bos taurus, UniProt P00921).
T1 construct: gene CA2
The experiment in a line: NPA (4-nitrophenyl acetate) hydrolysis assay with isolated bCA-II after […] nm photodeprotection of PCEM. Type of experiment: biochemical.

SMILES strings stand for the structures.

T1 sequence (P00921 2-260): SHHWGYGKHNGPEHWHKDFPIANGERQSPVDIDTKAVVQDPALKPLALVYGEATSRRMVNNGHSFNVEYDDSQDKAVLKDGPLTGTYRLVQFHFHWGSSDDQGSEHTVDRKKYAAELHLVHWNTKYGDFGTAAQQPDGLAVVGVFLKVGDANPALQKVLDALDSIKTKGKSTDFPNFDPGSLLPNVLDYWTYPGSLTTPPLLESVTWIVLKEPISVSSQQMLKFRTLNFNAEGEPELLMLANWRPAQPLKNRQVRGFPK

On to `NS(=O)(=O)c1nc2ccc(OCCC[n+]3ccccc3)cc2s1` [dPCEM], for which the 50% inhibitory concentration (IC50) was determined as 2900 nM.

One may read the IC50 as the concentration that gives 50% inhibition. A higher IC50 goes with lower potency.

(Values after publication PMC12226970, “A subcellularly targeted photocaged inhibitor for mitochondrial carbonic anhydrase V” (Dalton Transactions (Cambridge, England : 2003), 2025).)
